Earlier results, collected in patent US20160158203A1, “METHODS OF TREATMENT WITH BIOAVAILABLE COMPOSITIONS OF METAXALONE COMPRISING NONVOLATILE LIQUIDS” (priority 2004, published 2016).

Conditions: as reviewed in U.S. Pat. Nos. 6,407,128 and 6,683,102

Cc1cc(C)cc(OCC2CNC(=O)O2)c1 (stereo not shown) [metaxalone, 5-[(3,5-dimethylphenoxy)methyl]-2 oxazolidinone]
Aqueous solubility (description): essentially water-insoluble
